Legend:
Experiment in all cases: relative viability (nuclei count vs DMSO), 5 days (fraction); higher = more cells survive
BI-D1870 + Navitoclax = compound: CC(C)CCN1c2nc(Nc3cc(F)c(O)c(F)c3)ncc2N(C)C(=O)C1C [BI-D1870] + CC1(C)CCC(c2ccc(Cl)cc2)=C(CN2CCN(c3ccc(C(=O)NS(=O)(=O)c4ccc(N[C@H](CCN5CCOCC5)CSc5ccccc5)c(S(=O)(=O)C(F)(F)F)c4)cc3)CC2)C1 [Navitoclax] (partner 0.5 µM)
In short: (§1)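 Five library-drug doses in √10 steps were combined with a fixed anchor-drug dose, or a single drug was given alone, by pin tool to lung cancer cell lines in 1536-well plates the day after seeding. Nuclei were stained and counted after 5 days. Relative viability is the nuclei count in treated wells over that in vehicle wells, taken as the median of duplicate plates.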

BI-D1870 + Foretinib = compound: CC(C)CCN1c2nc(Nc3cc(F)c(O)c(F)c3)ncc2N(C)C(=O)C1C [BI-D1870] + COc1cc2c(Oc3ccc(NC(=O)C4(C(=O)Nc5ccc(F)cc5)CC4)cc3F)ccnc2cc1OCCCN1CCOCC1 [Foretinib] (partner 0.25 µM)
In short: as §1

Zebularine = compound: O=c1ncccn1[C@@H]1O[C@H](CO)[C@@H](O)[C@H]1O [Zebularine]
In short: (§2)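 Five library-drug doses spaced by √10 were pinned onto vehicle-anchored 1536-well plates of lung cancer cell lines that had been kept overnight at 37 °C. Cells went 5 days without medium change, then were fixed, permeabilised and Hoechst-stained together, imaged at 4× and counted by MetaXpress. Viability is the ratio of treated-well to vehicle-well nuclei, taken as a median over plates. Plates required control CV below 25% and at least one doubling.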

BI-D1870 = compound: CC(C)CCN1c2nc(Nc3cc(F)c(O)c(F)c3)ncc2N(C)C(=O)C1C [BI-D1870]
In short: as §2

Cell Line	relative viability (BI-D1870 + Navitoclax; first compound 0.04 µM)	relative viability (BI-D1870 + Navitoclax; first compound 0.1265 µM)	relative viability (BI-D1870 + Navitoclax; first compound 0.4 µM)	relative viability (BI-D1870 + Navitoclax; first compound 1.265 µM)	relative viability (BI-D1870 + Navitoclax; first compound 4 µM)	relative viability (BI-D1870 + Foretinib; first compound 0.04 µM)	relative viability (BI-D1870 + Foretinib; first compound 0.1265 µM)	relative viability (BI-D1870 + Foretinib; first compound 0.4 µM)	relative viability (BI-D1870 + Foretinib; first compound 1.265 µM)	relative viability (BI-D1870 + Foretinib; first compound 4 µM)	relative viability (Zebularine; 1 µM)	relative viability (Zebularine; 3.162 µM)	relative viability (Zebularine; 10 µM)	relative viability (Zebularine; 31.62 µM)	relative viability (Zebularine; 100 µM)	relative viability (BI-D1870; 0.04 µM)	relative viability (BI-D1870; 0.1265 µM)	relative viability (BI-D1870; 0.4 µM)	relative viability (BI-D1870; 1.265 µM)	relative viability (BI-D1870; 4 µM)
LOU-NH91	0.854	0.631	0.721	0.662	0.522	0.979	0.897	0.876	1.01	0.817	0.976	1.01	0.875	0.979	0.725	1.05	0.945	0.895	1.04	0.729
NCI-H3122	1	0.927	1.1	0.993	1.04	0.898	0.942	0.96	0.974	0.889	1.03	0.987	0.875	1.01	1.04	1.03	0.927	0.951	1.02	0.903
NCI-H460	1.24	1.09	1.08	0.407	0.0595	1.09	0.869	0.974	1.06	0.305	1.07	1	0.662	0.498	0.096	1.04	0.96	0.96	0.999	0.703
NCI-H1793	0.34	0.342	0.372	0.554	0.45	0.72	0.561	0.63	0.737	0.943	1.16	1	0.442	0.67	0.237	1.06	0.803	0.757	1.19	0.801
NCI-H1734	0.875	0.757	0.842	0.849	0.81	0.881	0.827	0.883	0.936	0.837	1.02	0.97	0.771	0.579	0.289	1.02	0.922	0.978	0.987	0.815
LXF-289	0.951	0.923	0.94	0.936	0.895	1.01	0.942	0.956	0.941	0.88	1.06	0.889	0.931	0.831	0.346	1.01	0.946	0.973	1.02	0.846
H3255	0.688	0.598	0.56	0.595	0.468	0.784	0.915	0.953	1.09	0.849	1.01	0.948	0.782	0.998	1.05	1.01	0.97	1.04	1.09	0.994
201T	1.18	1.18	1.19	1.23	1.19	1.22	1.02	1	1.29	1.05	1.08	0.986	0.776	1	0.947	0.989	0.962	0.975	0.985	0.959
NCI-H2126	0.876	0.829	0.853	0.904	0.771	1.23	1.14	1.22	1.15	1.06	1.06	0.884	0.879	0.927	0.648	1.05	0.889	0.981	1	0.854
HOP-62	1.06	1.01	0.995	1.2	1.01	1.27	1.03	1.07	1.06	0.924	1.11	0.911	0.564	0.287	0.213	1.18	1.01	0.965	1.03	0.949
CAL-12T	1.35	1.03	1.19	1.07	1.08	1.29	0.831	1.11	1.23	0.889	1.03	0.871	0.793	0.993	0.671	1.14	0.87	0.946	0.97	0.682
NCI-H520	1.12	1.01	0.938	1.05	0.829	0.821	0.724	0.741	0.958	0.818	1.11	0.957	0.52	0.388	0.26	0.963	0.79	1.11	0.927	0.851
NCI-H1755	1.06	0.945	0.995	1.07	1.01	0.908	0.865	0.882	1.03	0.884	1.12	0.981	1.02	1.04	0.717	1.03	1.01	1.03	1.07	1.01
NCI-H2023	1.03	0.811	1.01	0.864	0.894	0.919	0.635	0.823	0.851	0.945	1.17	1	0.724	0.613	0.287	1	0.846	0.88	0.988	0.701
NCI-H2009	1.22	1.12	1.15	1.09	0.865	1.31	1.09	1.23	1.12	1	1.05	0.987	0.793	0.704	0.358	1.11	0.967	1.02	0.858	0.513
